From patent US4904659A, “Substituted quinoline derivatives and pharmaceutical compositions thereof” (Development Finance Corporation of New Zeland, priority 1985, dated 1990)
Like-named read-outs stand apart in the source and are kept apart here.

Tests used:
L1210 leukemia cells = test: Growth inhibition of cultured L1210 leukemia cells (70 h, counted cell numbers); assay type: cell-based; conditions: Mus musculus
P388 leukemia = test: In vivo antitumour activity against P388 leukemia (cells inoculated intraperitoneally); parameters: species or system mice (F1 hybrids of DBA/2J male x C57BL/6J female); conditions: for P388 in vivo ILS (percentage increase in lifespan) / P388 in vivo Active: P388 leukemia; for P388 in vivo ILS (percentage increase in lifespan): at optimal dose (OD), intraperitoneal, days 1, 5 and 9, control survival 11 days; for P388 in vivo Active: at the stated dose, ILS greater than 20% significant; for P388 in vivo number of long-term survivors: number in parentheses after ILS, out of a group of 6, P388 leukemia
Protocol: (§1) OD--The optimal drug dose (in milligrams per kilogram), administered intraperitoneally as a solution in 0.1 ml of 30% v/v ethyl alcohol in water on days 1, 5 and 9 after tumour inoculation. The drug is administered as a soluble acid addition salt.
(§2) ILSmax--The percentage increase in lifespan of treated animals over that of control animals injected with tumour alone. The average survival of control mice was 11 days (for P388 leukemia) and 17 days (for Lewis lung carcinoma) ILS values greater than 20% (P388 leukemia) and 40% (Lewis lung carcinoma) are considered statistically significant. Numbers in parentheses after ILS values indicate the number of long-term survivors (out of a group of 6).
(§3) Y--Implies a significant value of drug activity at the stated dose.
(§4) N--Implies no statistically significant activity.
(§5) Both of these tumour lines were obtained as frozen cell stocks from Mason Research Inc., USA and are passaged intraperitoneally in DBA/25 mice of either sex (P388) or subcutaneously in C57BL/65 mice of either sex (LL) according to the standard methods (Cancer Chemother. Reports., 3, Part 3, p9, 1972).
(§6) Groups of six mice (F1 hybrids of DBA/2J male x C57BL/6J female) were injected intraperitoneally (P388) or intravenously (tail vein, LL), with 10^6 tumour cells on day 0. When given in this manner, P388 cells grow diffusely in the peritoneal cavity, whereas the Lewis lung cells from distinct solid tumour nodules in the lungs. Antitumour activity is determined by published methods (European J. Cancer, 19, pp.1607-1613, 1983).

[1] = Rm: lipophilic-hydrophilic balance from reversed phase partition chromatography; assay type: physicochemical; conditions: linearly related to 1-octanol/water partition coefficients
Source text: Rm-a measure of the compound's liphophilic-hydrophilic balance from reversed phase partition chromatography. Rm is linearly related to partition coefficients obtained in the 1-octanol/water system.

Lewis lung carcinoma = test: In vivo antitumour activity against Lewis lung carcinoma (cells inoculated intravenously); parameters: species or system mice (F1 hybrids of DBA/2J male x C57BL/6J female); conditions: for LL in vivo ILS (percentage increase in lifespan) / LL in vivo Active: Lewis lung carcinoma; for LL in vivo ILS (percentage increase in lifespan): at optimal dose (OD), intraperitoneal, days 1, 5 and 9, control survival 17 days; for LL in vivo Active: at the stated dose, ILS greater than 40% significant; for LL in vivo number of long-term survivors: number in parentheses after ILS, out of a group of 6, Lewis lung carcinoma
Protocol: as §1, §2, §3, §4
LL--Is the Lewis lung carcinoma.
as §5, §6

bacterial cell lines = test: In vitro antibacterial activity; assay type: cell-based; conditions: a number of bacterial cell lines
[2] = L1210 leukemia cells, 70 h, cell numbers reduced to 50% of controls, read-out: In vitro L1210 (IC50)

| Structure (SMILES) | IC50 (L1210 leukemia cells; [2]) | P388 in vivo ILS (percentage increase in lifespan) (P388 leukemia) | P388 in vivo Active (P388 leukemia) | chromatographic logP [1] | IC50 (L1210 leukemia cells; L1210 leukemia cells, 70 h, cell numbers reduced to 50% of controls, read-out: In vitro L1210 (IC50), cell printed with unit nm) | LL in vivo ILS (percentage increase in lifespan) (Lewis lung carcinoma) | LL in vivo Active (Lewis lung carcinoma) | antibacterial activity (bacterial cell lines) | IC50 (L1210 leukemia cells; L1210, 70 h, read-out: In vitro L1210 (IC50)) | LL in vivo number of long-term survivors (Lewis lung carcinoma) | P388 in vivo number of long-term survivors (P388 leukemia) |
| --- | --- | --- | --- | --- | --- | --- | --- | --- | --- | --- | --- |
| CC(=O)Nc1ccc(-c2ccc3cccc(C(=O)NCCN(C)C)c3n2)cc1 [Compound 22] | 740 nM | < 20% | N (Implies no statistically significant activity) | – | – | – | – | – | – | – | – |
| CN(C)CCNC(=O)c1cccc2ccc(-c3ccc(O)cc3)nc12 [Compound 19] | 27 nM | 22% | Y (Implies a significant value of drug activity at the stated dose) | -0.33 | – | – | – | – | – | – | – |
| CN(C)CCNC(=O)c1cccc2ccc(-c3ccc(F)cc3)nc12 [Compound 13] | – | < 20% | N (Implies no statistically significant activity) | – | – | – | – | – | – | – | – |
| CN(C)CCNC(=O)c1cccc2ccc(-c3ccc(I)cc3)nc12 [Compound 16] | – | 48% | Y (Implies a significant value of drug activity at the stated dose) | – | – | – | – | – | – | – | – |
| COc1ccc(-c2ccc3cccc(C(=O)NCCN(C)C)c3n2)cc1 [Compound 18] | – | 42% | Y (Implies a significant value of drug activity at the stated dose) | -0.16 | 1290 nM | – | – | – | – | – | – |
| CN(C)CCCNC(=O)c1cccc2ccc(-c3ccccc3)nc12 [Compound 2] | 1140 nM | 71% | Y (Implies a significant value of drug activity at the stated dose) | 0.06 | – | < 40% | N (Implies no statistically significant activity) | – | – | – | – |
| CN(C)CCNC(=O)c1ccc(Cl)c2ccc(-c3ccccc3)nc12 [Compound 25] | – | 63% | Y (Implies a significant value of drug activity at the stated dose) | – | – | – | – | – | – | – | – |
| CN(C)CCNC(=O)c1cccc2ccc(-c3ccccc3)nc12 [Compound 1] | – | 91% | Y (Implies a significant value of drug activity at the stated dose) | -0.01 | – | 70% | Y (Implies a significant value of drug activity at the stated dose) | show in vitro activity against a number of bacterial cell lines | 1300 nM | 4 | – |
| CN(C)CCNC(=O)c1cc([N+](=O)[O-])cc2ccc(-c3ccccc3)nc12 [Compound 26] | – | 63% | Y (Implies a significant value of drug activity at the stated dose) | – | – | – | – | – | – | – | – |
| CN(C)CCNC(=O)c1cccc2ccc(-c3ccc(NS(C)(=O)=O)cc3)nc12 [Compound 23] | 1330 nM | < 20% | N (Implies no statistically significant activity) | -0.38 | – | – | – | – | – | – | – |
| CN(C)CCNC(=O)c1cccc2ccc(-c3ccc(Cl)cc3)nc12 [Compound 14] | 1170 nM | 52% | Y (Implies a significant value of drug activity at the stated dose) | 0.05 | – | 91% | Y (Implies a significant value of drug activity at the stated dose) | – | – | 4 | – |
| CN(C)CCNC(=O)c1cccc2ccc(-c3ccncc3)nc12 [Compound 12] | 170 nM | 145% | Y (Implies a significant value of drug activity at the stated dose) | -0.87 | – | 132% | Y (Implies a significant value of drug activity at the stated dose) | show in vitro activity against a number of bacterial cell lines | – | 3 | 2 |
| COc1cccc(-c2ccc3cccc(C(=O)NCCN(C)C)c3n2)c1 [Compound 11] | 860 nM | 46% | Y (Implies a significant value of drug activity at the stated dose) | – | – | – | – | – | – | – | – |
| CN(C)CCNC(=O)c1cccc2ccc(-c3ccc(-c4ccccc4)cc3)nc12 [Compound 17] | 1290 nM | < 20% | N (Implies no statistically significant activity) | – | – | – | – | – | – | – | – |
| CN(C)CCNC(=O)c1cccc2ccc(-c3ccc(N)cc3)nc12 [Compound 21] | 200 nM | 28% | Y (Implies a significant value of drug activity at the stated dose) | -0.76 | – | 65% | Y (Implies a significant value of drug activity at the stated dose) | – | – | – | – |
| CN(C)CCCCNC(=O)c1cccc2ccc(-c3ccccc3)nc12 [Compound 3] | 680 nM | 93% | Y (Implies a significant value of drug activity at the stated dose) | 0.14 | – | 148% | Y (Implies a significant value of drug activity at the stated dose) | – | – | 2 | – |
| CN(C)CCNC(=O)c1cccc2ccc(-c3ccccc3Cl)nc12 [Compound 8] | 8100 nM | < 20% | N (Implies no statistically significant activity) | 0.15 | – | – | – | – | – | – | – |
| O=C(NCCNCCO)c1cccc2ccc(-c3ccccc3)nc12 [Compound 5] | – | < 20% | N (Implies no statistically significant activity) | – | – | – | – | – | – | – | – |
| CN(C)CCNC(=O)c1cccc2ccc(-c3cccc(Cl)c3)nc12 [Compound 10] | 1200 nM | 40% | Y (Implies a significant value of drug activity at the stated dose) | 0.05 | – | < 40% | N (Implies no statistically significant activity) | – | – | – | – |
| CN(C)CCNC(=O)c1cccc2ccc(-c3ccccn3)nc12 [Compound 7] | 1640 nM | 73% | Y (Implies a significant value of drug activity at the stated dose) | -1.43 | – | 91% | Y (Implies a significant value of drug activity at the stated dose) | – | – | – | 3 |
| CN(C)CCCCCNC(=O)c1cccc2ccc(-c3ccccc3)nc12 [Compound 4] | 1300 nM | < 20% | N (Implies no statistically significant activity) | 0.21 | – | < 40% | N (Implies no statistically significant activity) | – | – | – | – |
| CN(C)CCNC(=O)c1cccc2ccc(-c3cccnc3)nc12 [Compound 9] | 840 nM | 58% | Y (Implies a significant value of drug activity at the stated dose) | -0.58 | – | 52% | Y (Implies a significant value of drug activity at the stated dose) | – | – | 2 | – |
| CN(C)CCNC(=O)c1cccc2ccc(-c3ccc(Br)cc3)nc12 [Compound 15] | 600 nM | 72% | Y (Implies a significant value of drug activity at the stated dose) | – | – | – | – | – | – | – | – |
| CN(C)CCNC(=O)c1cccc2ccc(-c3ccc([N+](=O)[O-])cc3)nc12 [Compound 20] | 290 nM | 71% | Y (Implies a significant value of drug activity at the stated dose) | -0.18 | – | 85% | Y (Implies a significant value of drug activity at the stated dose) | – | – | – | – |
